According to patent US4766126A, “Process for treatment of nephritis with imidazoquinazolines” (Daiichi Seiyaku Co., Ltd., priority 1986, dated 1988):
“Also recorded” adds a separate entry of the source. Counter-ions that a name gives are not always drawn.

Assays:
[1] = system: anti-erythrocyte antibody (auto-antibody) in BDF1 mice; assay: Auto-antibody production in mouse induced by GVHR (anti-erythrocyte antibody titre, direct Coombs' test); format: in vivo
Procedure: (§1) When an animal of a first filial generation is implanted with lymphatic cells of its parent's line, a graft-versus-host reaction (hereinafter abbreviated as GVHR) takes place to thereby produce an auto-antibody and induce chronic immune-complex (IC) type nephritis.
(§2) The present invention will now be illustrated by way of experiment examples. In these examples, the drug of interest was dissolved in a 0.5 wt% aqueous solution of carboxymethyl cellulose and administered to test animals in an amount of 0.1 ml per 10 g of the body weight.
(§3) Into BDF1 mice (female; 7-week-old; Nippon Charles River) were intravenously implanted twice spleen cells (6×10^7 cells) and thymus cells (3×10^7 cells) taken from DBA/2 mice (female; 7-week-old; Nippon Charles River) of their parent's line on the 0 day and the 5th day to thereby induce GVHR. DN-9693 was orally given at a dose level of 1 mg/kg in a single dose per day for consecutive 44 days from the 6th day to the 49th day. After 2 weeks from the first implantation of cells, the protein in urine and the anti-erythrocyte antibody titre were determined at one week intervals. The protein in urine and the antibody titre were determined by the modified one step Exton method and the direct Coombs' test method, respectively, in accordance with the following procedures:
Direct Coombs' Test Method
1. Blood samples (50 μl) were obtained from the orbital veniplex of the experimental animals (mice) using a heparinized hematocrit tube.
2. The erythrocytes were washed three times by centrifugation (2,500 r.p.m. for 6 minutes) with a phosphoric acid-buffered physiological saline containing 0.3 wt% bovine serum albumin (0.3% BSA-PBS).
3. The erythrocytes were suspended in 0.3% BSA-PBS to prepare a 1 wt% mouse erythrocyte suspension.
4. The erythrocyte suspension (50 μl) was added to 50 μl of rabbit anti-mouse Ig (MBL) in a two-fold serial dilution placed in a microplate. After shaking, the system was allowed to stand at 37° C. for 1 hour and then at room temperature for 2 hours. The state of agglutination was observed.
5. The maximum dilution of the rabbit anti-mouse Ig that gave a positive agglutination was expressed as 10×2^n, and the value n was taken as an antibody titre.

[2] = system: GVHR-induced nephritis (proteinuria) in BDF1 mice; assay: GVHR-induced proteinuria in mouse (urinary protein by modified one step Exton method); format: in vivo
Procedure: as §1, §2, §3
Modified One Step Exton Method
1. Test urine and an albumin standard preparation were placed in a microplate in 10 μl portions.
2. To each hole was added 200 μl of a reagent prepared by dissolving 15 g of sulfosalicylic acid, 20 g of anhydrous sodium sulfate, 5 mg of Bromophenol Blue, and 0.1 g of carboxymethyl cellulose in one liter of water. After stirring to mix, the system was allowed to stand at room temperature.
3. Ten minutes later, the absorbance at 690 nm was measured using the system comprising the reagent alone as a blank.
4. The protein in urine was calculated from a calibration curve.

[3] = system: lupus nephritis (proteinuria) in NZB/WF1 mice; assay: Urinary protein in NZB/WF1 mouse (spontaneous lupus nephritis); format: in vivo
Procedure: as §2
Ten animals clearly showing proteinuria were chosen from 32-week-old NZB/WF1 mice (female, Jackson) and divided into two groups (5 animals per group) taking the protein level in urine as a guide.
DN-9693 was continuously administered orally one or two times per day at a dose of 1 mg/kg, and influences on changes of urinary protein level were examined.
Thus, the activity to lower protein in urine was recognized also in spontaneously occurring lupus nephritis.

[4] = system: nephritis of acute serum sickness; conditions: Clin. Exp. Immunol., Vol. 61, 388-396 (1985); cited from earlier work
[5] = 1 mg/kg p.o., in words, monohydrate

| Compound | Anti-Erythrocyte Antibody Titre (Mean ± S.E.), 3rd Week ([1]; 1 mg/kg p.o. once daily day 6-49, n=7, titre n: 10 × 2^n, 3rd week from first cell implantation, control 6.3 ± 1.0) | Anti-Erythrocyte Antibody Titre (Mean ± S.E.), 4th Week ([1]; 1 mg/kg p.o. once daily day 6-49, n=7, titre n: 10 × 2^n, 4th week from first cell implantation, control 5.4 ± 0.6) | Anti-Erythrocyte Antibody Titre (Mean ± S.E.), 5th Week ([1]; 1 mg/kg p.o. once daily day 6-49, n=7, titre n: 10 × 2^n, 5th week from first cell implantation, control 4.9 ± 1.3) | Anti-Erythrocyte Antibody Titre (Mean ± S.E.), 6th Week ([1]; 1 mg/kg p.o. once daily day 6-49, n=7, titre n: 10 × 2^n, 6th week from first cell implantation, control 2.9 ± 1.5) | Anti-Erythrocyte Antibody Titre (Mean ± S.E.), 7th Week ([1]; 1 mg/kg p.o. once daily day 6-49, n=7, titre n: 10 × 2^n, 7th week from first cell implantation, control 1.9 ± 1.2) | Influence on production of auto-antibody / immune inhibitory activity [1, 5] | Effect on urinary protein (GVHR-induced nephritis) [2, 5] | Urinary Protein Score (Mean ± S.E.), 4th Week ([2]; DN-9693 1 mg/kg p.o. once daily day 6-49, n=7, 4th week from first cell implantation, control 0.2 ± 0.1, score 0 (<=1 mg/ml) to 4 (>=30 mg/ml and ascitic positive)) | Urinary Protein Score (Mean ± S.E.), 5th Week ([2]; DN-9693 1 mg/kg p.o. once daily day 6-49, n=7, 5th week from first cell implantation, control 0.8 ± 0.4, score 0 to 4) | Urinary Protein Score (Mean ± S.E.), 6th Week ([2]; DN-9693 1 mg/kg p.o. once daily day 6-49, n=7, 6th week from first cell implantation, control 1.8 ± 0.7, score 0 to 4) | Urinary Protein Score (Mean ± S.E.), 7th Week ([2]; DN-9693 1 mg/kg p.o. once daily day 6-49, n=7, 7th week from first cell implantation, control 2.3 ± 0.6, S.E. 0.4 printed on next line, significantly different from control (P < 0.05), score 0 to 4) | Effect on urinary protein (spontaneous lupus nephritis) ([3]; 1 mg/kg p.o. one or two times per day, in words, monohydrate) | Number of survivors, 0 Week (32) ([3]; of 5 animals, 0 week, control 5) | Number of survivors, 1 Week (33) ([3]; of 5 animals, 1 week, control 5) | Number of survivors, 2 Weeks (34) ([3]; of 5 animals, 2 weeks, control 4) | Urinary Protein Index (Mean ± S.E.), 0 Week (32) ([3]; protein level after/before administration, 1 mg/kg p.o. one or two times per day, 0 week (32-week-old), control 1.0) | Urinary Protein Index (Mean ± S.E.), 1 Week (33) ([3]; protein level after/before administration, 1 mg/kg p.o. one or two times per day, 1 week (33-week-old), control 7.0 ± 5.9) | Urinary Protein Index (Mean ± S.E.), 2 Weeks (34) ([3]; protein level after/before administration, 1 mg/kg p.o. one or two times per day, 2 weeks (34-week-old), control 4.8 ± 2.9) | Protection of nephritis [4] |
| --- | --- | --- | --- | --- | --- | --- | --- | --- | --- | --- | --- | --- | --- | --- | --- | --- | --- | --- | --- |
| O=C1CN2Cc3cc(N4CCCCC4)ccc3N=C2N1 [DN-9693, 7-piperidino-1,2,3,5-tetrahydroimidazo[2,1-b]quinazolin-2-onedihydrochloride monohydrate] | 6.6 ± 0.6 | 5.6 ± 0.2 | 3.6 ± 1.1 | 3.9 ± 1.1 | 3.1 ± 1.0 | did not influence the production of an auto-antibody; also recorded: possesses no immune inhibitory activity; also recorded: does not decrease the Coombs antibody titre | exhibited an effect to decrease protein in urine; also recorded: urinary protein decreasing effect; also recorded: significantly inhibits an increase of urinary protein | 0.3 ± 0.1 | 0.1 ± 0.1 | 0.4 ± 0.4 | 0.6 | the increase of urinary protein level is inhibited; also recorded: reduction of protein in the urine | 5 | 5 | 5 | 1.1 | 1.2 ± 0.2 | 1.6 ± 0.6 |  |
| N=C(N)c1ccc2cc(OC(=O)c3ccc(N=C(N)N)cc3)ccc2c1 [FUT-175, dihydrochloride] |  |  |  |  |  |  |  |  |  |  |  |  |  |  |  |  |  |  | protection of nephritis |
| OCCN(CCO)c1nc(N2CCCCC2)c2nc(N(CCO)CCO)nc(N3CCCCC3)c2n1 [dipyridamole, 2,6-bis(diethanolamino)-4,8-dipiperidinopyrimido[5,4,-d]pyrimidine] |  |  |  |  |  |  |  |  |  |  |  |  |  |  |  |  |  |  | protection of nephritis |
